Measurements: PubChem BioAssay AID1963856 (Molecular Pharmacology Branch, DTP, NCI, 2024)

Tested on: LG0567-F671-PDC KRAS tumor spheroid viability
Experiment: Anticancer human tumor LG0567-F671-PDC patient-derived lung adenocarcinoma cell line growth inhibition [KRAS2]
Conditions: spheroids with HUVEC and MSC; for IC50: curve of first compound; for viability, T/C: stronger effect = lower value
How it was run: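 Combination screen of spheroid viability in tumor-cell co-cultures with endothelial (HUVEC) and mesenchymal stem cell stroma. Each agent was tested in half-log dilutions, topping at clinical Cmax or at 10 microM without a known Cmax.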

[1] = second compound 0.1 µM, first compound 0.0316 µM
[2] = second compound 0.316 µM, first compound 0.0316 µM
[3] = second compound 1 µM, first compound 0.0316 µM
[4] = second compound 3.16 µM, first compound 0.0316 µM
[5] = second compound 10 µM, first compound 0.0316 µM
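Also: drug exposure lasted seven days after spheroids formed for three days.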
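For viability, T/C in this document: 100% = DMSO vehicle control viability.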

Compound: CC(=O)Nc1cccc(-n2c(=O)n(C3CC3)c(=O)c3c(Nc4ccc(I)cc4F)n(C)c(=O)c(C)c32)c1 + CNCc1ccccc1-c1csc(C(C)Nc2nc(C)nc3cc(OC)c(OC)cc23)c1
- IC50 (second compound 0.1 µM): 2.08 nM
- IC50 (second compound 0.316 µM): 0.799 nM
- IC50 (second compound 1 µM): 0.813 nM
- IC50 (second compound 3.16 µM): < 0.1 nM
- IC50 (second compound 10 µM): < 0.1 nM
- viability, T/C (second compound 0.1 µM, first compound 0.0001 µM): 73.6%
- viability, T/C (second compound 0.1 µM, first compound 0.000316 µM): 68.3%
- viability, T/C (second compound 0.1 µM, first compound 0.001 µM): 49.1%
- viability, T/C (second compound 0.1 µM, first compound 0.00316 µM): 52.5%
- viability, T/C (second compound 0.1 µM, first compound 0.01 µM): 29.4%
- viability, T/C [1]: 11.6%
- viability, T/C (second compound 0.316 µM, first compound 0.0001 µM): 65.1%
- viability, T/C (second compound 0.316 µM, first compound 0.000316 µM): 54.7%
- viability, T/C (second compound 0.316 µM, first compound 0.001 µM): 47.8%
- viability, T/C (second compound 0.316 µM, first compound 0.00316 µM): 33.4%
- viability, T/C (second compound 0.316 µM, first compound 0.01 µM): 39%
- viability, T/C [2]: 8.76%
- viability, T/C (second compound 1 µM, first compound 0.0001 µM): 61.8%
- viability, T/C (second compound 1 µM, first compound 0.000316 µM): 63.2%
- viability, T/C (second compound 1 µM, first compound 0.001 µM): 46.9%
- viability, T/C (second compound 1 µM, first compound 0.00316 µM): 26.8%
- viability, T/C (second compound 1 µM, first compound 0.01 µM): 17.9%
- viability, T/C [3]: 8.07%
- viability, T/C (second compound 3.16 µM, first compound 0.0001 µM): 2.63%
- viability, T/C (second compound 3.16 µM, first compound 0.000316 µM): 1.14%
- viability, T/C (second compound 3.16 µM, first compound 0.001 µM): 0.22%
- viability, T/C (second compound 3.16 µM, first compound 0.00316 µM): 0.57%
- viability, T/C (second compound 3.16 µM, first compound 0.01 µM): 0.29%
- viability, T/C [4]: 0.3%
- viability, T/C (second compound 10 µM, first compound 0.0001 µM): 1.49%
- viability, T/C (second compound 10 µM, first compound 0.000316 µM): 0.17%
- viability, T/C (second compound 10 µM, first compound 0.001 µM): 0.53%
- viability, T/C (second compound 10 µM, first compound 0.00316 µM): 0.14%
- viability, T/C (second compound 10 µM, first compound 0.01 µM): 0.14%
- viability, T/C [5]: 0.24%

Compound: CC1OCC2(CCN(c3cnc(Sc4ccnc(N)c4Cl)c(N)n3)CC2)C1N (stereo not given) + CNCc1ccccc1-c1csc(C(C)Nc2nc(C)nc3cc(OC)c(OC)cc23)c1
- IC50 (second compound 0.1 µM): 68.1 nM
- IC50 (second compound 0.316 µM): 53.3 nM
- IC50 (second compound 1 µM): 75 nM
- IC50 (second compound 3.16 µM): 221 nM
- IC50 (second compound 10 µM): < 31.6 nM
- viability, T/C [1]: 60.4%
- viability, T/C (second compound 0.1 µM, first compound 0.1 µM): 44.5%
- viability, T/C (second compound 0.1 µM, first compound 0.316 µM): 33.3%
- viability, T/C (second compound 0.1 µM, first compound 1 µM): 28.6%
- viability, T/C (second compound 0.1 µM, first compound 3.16 µM): 23.6%
- viability, T/C (second compound 0.1 µM, first compound 10 µM): 17.7%
- viability, T/C [2]: 57.1%
- viability, T/C (second compound 0.316 µM, first compound 0.1 µM): 41.6%
- viability, T/C (second compound 0.316 µM, first compound 0.316 µM): 30%
- viability, T/C (second compound 0.316 µM, first compound 1 µM): 23.3%
- viability, T/C (second compound 0.316 µM, first compound 3.16 µM): 22.1%
- viability, T/C (second compound 0.316 µM, first compound 10 µM): 14.6%
- viability, T/C [3]: 61.5%
- viability, T/C (second compound 1 µM, first compound 0.1 µM): 43.4%
- viability, T/C (second compound 1 µM, first compound 0.316 µM): 38.4%
- viability, T/C (second compound 1 µM, first compound 1 µM): 24.8%
- viability, T/C (second compound 1 µM, first compound 3.16 µM): 18.1%
- viability, T/C (second compound 1 µM, first compound 10 µM): 13.5%
- viability, T/C [4]: 79.2%
- viability, T/C (second compound 3.16 µM, first compound 0.1 µM): 65.7%
- viability, T/C (second compound 3.16 µM, first compound 0.316 µM): 43.8%
- viability, T/C (second compound 3.16 µM, first compound 1 µM): 13.4%
- viability, T/C (second compound 3.16 µM, first compound 3.16 µM): 3.22%
- viability, T/C (second compound 3.16 µM, first compound 10 µM): 3.6%
- viability, T/C [5]: 0.2%
- viability, T/C (second compound 10 µM, first compound 0.1 µM): 0.17%
- viability, T/C (second compound 10 µM, first compound 0.316 µM): 0.16%
- viability, T/C (second compound 10 µM, first compound 1 µM): 0.14%
- viability, T/C (second compound 10 µM, first compound 3.16 µM): 0.13%
- viability, T/C (second compound 10 µM, first compound 10 µM): 0.2%
